From publication PMC6282620, “Structural and biochemical characterization of Plasmodium falciparum Hsp70‐x reveals functional versatility of its C‐terminal EEVN motif” (Proteins, 2018)
Like-named read-outs stand apart in the source and are kept apart here. Where no end group is shown, it is not given here.

Assays:
[1] = molecular target: T1, PfHsp70‐x (Plasmodium falciparum, UniProt K7NTP5); assay: SPR nucleotide (ATP) binding assay; conditions: SPR steady state, PfHsp70‐x immobilized as ligand, ATP 1.25-20 nM, 25°C, PBS-Tween pH 7.4; mean ± SD of three independent assays; read-out: K D (ATP analyte)
Procedure: (§1) The nucleotide binding assay was conducted at 25°C using a BioRad ProteOn XPR36 surface plasmon resonance (SPR) as previously described.22 The assay buffer was constituted of filter sterilized and degassed PBS‐Tween [([…], 1.46 mM KH2PO4, 137 mM NaCl, 3 mM KCl, 0.005% [v/v] Tween 20 and 20 mM EDTA; pH 7.4)]. PfHsp70‐x (1 μg mL^−1) and its truncated version, PfHsp70‐xT (1 μg mL^−1) were immobilized onto respective ProteOn HTE sensor chips as ligands. At these concentrations, we achieved 190 response units (RU) for PfHsp70‐x and 195 RU for PfHsp70‐xT per immobilization surface. Varying concentrations (1.25 nM, 2.50 nM, 5 nM 10 nM and 20 nM) of the analyte (ATP) were injected at a flow rate of 100 μL min^−1 in each horizontal channel and association and dissociation was allowed to occur and monitored for 10 minutes. Steady state equilibrium constant data was processed and analyzed using ProteOn Manager software version 3.1.0.6.

[2] = molecular target: T2, PfHsp70‐xT (Plasmodium falciparum, UniProt K7NTP5); assay: SPR nucleotide (ATP) binding assay; conditions: SPR steady state, PfHsp70‐xT immobilized as ligand, ATP 1.25-20 nM, 25°C, PBS-Tween pH 7.4; mean ± SD of three independent assays; read-out: K D (ATP analyte)
Procedure: as §1

[3] = molecular target: T1, PfHsp70‐x; assay: SPR peptide substrate binding kinetics; conditions: mean ± SD; for Kd: K D, peptide 1.25-20 nM, 25°C, PBS-Tween; for Kd / ka association rate constant: SPR, PfHsp70‐x ligand; for koff: read-out: kd dissociation rate constant, SPR, PfHsp70‐x ligand
Procedure: (§2) Association of PfHsp70‐x/PfHsp70‐xT with synthetic peptides that represent typical Hsp70 substrates26 was investigated using surface plasmon resonance (SPR) analysis as previously described.22, 24 Briefly, PfHsp70‐x and PfHsp70‐xT were immobilized onto respective ProteOn GLC sensor chips as ligands. PfHsp70‐x, PfHsp70‐xT (as ligands) were immobilized at concentrations of 0.5 and 1 μg mL^−1. At these concentrations we achieved 190 response units (RU) for PfHsp70‐x, and 193 RU for PfHsp70‐xT per immobilization surface. The assay was conducted at 25°C. Filter sterilized and degassed PBS‐Tween was used as the running buffer. As analytes, aliquots of peptides, representing typical Hsp70 substrates (NRLLTG, NRNNTG, ALLLMYRR, ANNNMYRR, GFRVVLMYRF, GFRNNNMYRF) were prepared at final concentration of 1.25, 2.50, 5, 10, and 20 nM and were injected at 50 μL min^−1 in each horizontal channel. Association was allowed for 2 minutes, dissociation was monitored for 10 minutes. The assay was repeated in the presence of nucleotides 2 mM ATP/ADP. The final data were determined by substracting the baseline RU (buffer containing ATP/ADP without analyte peptide). The association rate constant, dissociation rate constant and equilibrium constant data were analyzed using ProteOn Manager software version 3.1.0.6. by concatenating the responses of the analyte at variable concentrations.

[4] = molecular target: T2, PfHsp70‐xT; assay: SPR peptide substrate binding kinetics; design: ka association rate constant: scale not given here; conditions: mean ± SD; for Kd: K D, peptide 1.25-20 nM, 25°C, PBS-Tween; for Kd / ka association rate constant: SPR, PfHsp70‐xT ligand; for koff: read-out: kd dissociation rate constant, SPR, PfHsp70‐xT ligand
Procedure: as §2

[5] = molecular target: T1, PfHsp70‐x; assay: Slot blot assay of direct association with hHop; assay type: binding
Procedure: (§3) Recombinant forms of hHop, control (bovine serum albumin), PfHsp70‐x (positive control) were immobilized onto the nitrocellulose membrane using Bio‐Dot SF apparatus as previously described 22. The proteins were immobilized at final amounts of 2, 4, and 8 μg each respectively per lane. The membrane was blocked with 5% (w/v) fat‐free milk in TBST (50 mM Tris‐HCl pH 7.5, 150 mM NaCl, 0.1% [v/v] Tween 20) and overlaid with either PfHsp70‐x/PfHsp70‐xT (10 μg mL^−1) in the absence and presence of 5 mM ATP/ADP and incubated overnight at 4°C, followed by three washes with TBST for 15 minutes. The nucleotide concentrations were maintained in the subsequent steps of the protocol. Protein was detected by Western blot technique using rabbit raised α‐PfHsp70‐x [1:2000] (Genscript, USA) as primary antibodies and goat raised α‐rabbit IgG secondary HRP‐conjugated antibody [1:4000] (Sigma–Aldrich, USA). Imaging of the protein bands was conducted using the ECL kit as per manufacturer's instructions. The images were captured using ChemiDoc imaging system (Bio‐Rad, USA).

[6] = molecular target: T2, PfHsp70‐xT; assay: Slot blot assay of direct association with hHop; assay type: binding; conditions: hHop immobilized 2, 4, 8 μg, overlaid with PfHsp70‐xT 10 μg/mL
Procedure: as §3

[7] = molecular target: T1, PfHsp70‐x; assay: SPR analysis of association with hHop; assay type: binding; conditions: 5 mM ATP versus no nucleotide / ADP
Procedure: The direct association between PfHsp70‐x and hHop was further explored using SPR analysis. The assay was conducted at 25°C using filter sterilized and degassed PBS‐Tween running buffer [(8 mM Na2HPO4, 1.46 mM KH2PO4, 137 mM NaCl, 3 mM KCl, 0.005% [v/v] Tween 20 and 20 mM EDTA; pH 7.4)] as previously described.22, 24 The recombinant PfHsp70‐x /PfHsp70‐xT (1 μg mL^−1) and BSA (as control) were immobilized onto respective ProteOn GLC sensor chips as ligands. As analyte, the recombinant hHop at varying concentrations (125, 250, 500, 1 000, and 2 000 nM) was passed over the immobilized proteins. The analytes were injected at flow rate of 50 μL min^−1 and association and dissociation occurred in a period of 10 minutes. The assay was then repeated in the presence of 5 mM ADP/ATP. The association rate constant, dissociation rate constant, and equilibrium constant data were processed and analyzed using ProteOn Manager software version 3.1.0.6 involving concatenating the responses of the analyte at variable concentrations.

[8] = molecular target: T1, PfHsp70‐x; assay: ELISA of direct association with hHop; assay type: binding; conditions: Hop analyte 0.137-300 nM
Procedure: The direct association of hHop with PfHsp70‐x was further confirmed using an enzyme linked immunosorbent assay (ELISA) as previously described27 with minor modifications. Briefly, recombinant PfHsp70‐x/PfHsp70‐xT proteins and control BSA (5 μg/mL) were added to wells overnight in 50 mM NaHCO3, pH 9.3 at 4°C. The wells were washed at least three times with TBST, between each subsequent step. After blocking with 1% BSA in TBST, recombinant PfHop protein (analyte) was added in serial dilutions (0.137–300 nM) in the presence or absence of nucleotides (5 mM ATP/ADP) for 2 hours at 25°C. Then the wells were incubated with α‐PfHop primary antibody for 1 hour. Next, primary antibody was incubated with HRP conjugated goat raised anti‐rabbit IgG for 1 hour. HRP development was assayed with TMB substrate solution (Bio‐Scientific, USA) and monitored at 370 nm using a SpectraMax M3 microplate reader (Molecular Devices, USA) every 5 minutes for 30 minutes.

T1 sequence (K7NTP5 entry or part of it): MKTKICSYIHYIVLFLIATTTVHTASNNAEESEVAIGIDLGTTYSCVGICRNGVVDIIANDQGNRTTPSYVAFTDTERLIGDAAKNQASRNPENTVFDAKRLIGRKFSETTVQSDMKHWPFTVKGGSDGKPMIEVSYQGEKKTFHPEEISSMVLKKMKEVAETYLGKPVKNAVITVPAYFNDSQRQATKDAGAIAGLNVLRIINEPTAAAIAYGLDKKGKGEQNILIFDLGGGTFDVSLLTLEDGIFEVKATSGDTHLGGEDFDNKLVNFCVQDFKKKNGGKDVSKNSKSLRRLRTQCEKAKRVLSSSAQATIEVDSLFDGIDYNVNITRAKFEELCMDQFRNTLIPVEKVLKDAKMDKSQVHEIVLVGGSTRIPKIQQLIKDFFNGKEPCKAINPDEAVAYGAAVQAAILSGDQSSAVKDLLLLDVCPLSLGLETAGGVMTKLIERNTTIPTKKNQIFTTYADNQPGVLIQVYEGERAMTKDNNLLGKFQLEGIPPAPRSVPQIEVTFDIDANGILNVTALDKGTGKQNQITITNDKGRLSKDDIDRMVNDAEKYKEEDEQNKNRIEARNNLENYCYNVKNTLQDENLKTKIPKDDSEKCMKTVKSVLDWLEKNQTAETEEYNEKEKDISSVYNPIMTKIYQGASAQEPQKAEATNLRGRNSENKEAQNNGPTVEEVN
T2 sequence (K7NTP5 entry or part of it): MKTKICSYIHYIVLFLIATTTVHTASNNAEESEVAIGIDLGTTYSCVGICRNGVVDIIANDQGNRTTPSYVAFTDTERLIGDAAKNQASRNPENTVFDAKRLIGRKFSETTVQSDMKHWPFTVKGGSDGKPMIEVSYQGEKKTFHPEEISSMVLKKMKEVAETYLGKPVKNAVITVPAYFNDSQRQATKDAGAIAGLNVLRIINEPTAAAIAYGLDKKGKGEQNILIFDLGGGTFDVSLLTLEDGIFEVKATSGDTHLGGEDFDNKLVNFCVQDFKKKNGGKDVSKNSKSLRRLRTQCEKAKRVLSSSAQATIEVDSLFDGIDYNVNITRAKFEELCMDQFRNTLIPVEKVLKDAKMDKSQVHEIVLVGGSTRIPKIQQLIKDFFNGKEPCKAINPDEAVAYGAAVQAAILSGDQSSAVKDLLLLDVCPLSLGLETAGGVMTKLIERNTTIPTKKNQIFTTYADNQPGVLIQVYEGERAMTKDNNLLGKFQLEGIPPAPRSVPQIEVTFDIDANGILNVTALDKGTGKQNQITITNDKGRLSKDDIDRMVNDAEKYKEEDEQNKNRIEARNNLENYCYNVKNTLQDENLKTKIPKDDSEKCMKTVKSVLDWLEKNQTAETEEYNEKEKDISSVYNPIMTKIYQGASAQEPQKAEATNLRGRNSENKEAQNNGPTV

Molecule: Nc1ncnc2c1ncn2[C@@H]1O[C@H](COP(=O)(O)OP(=O)(O)OP(=O)(O)O)[C@@H](O)[C@H]1O [ATP]
- Kd [1]: 110 nM
- Kd [2]: 11200 nM

Molecule: ANNNMYRR [ANNNMYRR]
- Kd ([3]; no nucleotide (NN)): 2.21 nM

Molecule: GFTNNNMYRF [GFTNNNMYRF]
- Kd ([3]; 2 mM ADP): 6.25 nM
- Kd ([3]; no nucleotide (NN)): 2.4 nM
- Kd ([4]; 2 mM ADP): 1.4 nM
- Kd ([4]; no nucleotide (NN)): 2.2 nM

Molecule: GFTVVLMYRF [GFTVVLMYRF, reference compound]
- koff ([3]; + ADP): 1e-05 s⁻¹
- koff ([3]; + ATP): 0.000117 s⁻¹
- koff ([3]; no nucleotide): 1.03e-05 s⁻¹

Molecule: NRLLTG [NRLLTG, reference compound]
- ka association rate constant ([3]; + ADP): 1.62 (± 0. 22) 1/ Ms
- ka association rate constant ([3]; + ATP): 1.21 (± 0.23) 1/ Ms
- koff ([3]; + ADP): 1.01e-05 s⁻¹
- koff ([3]; + ATP): 1.01e-05 s⁻¹
- koff ([3]; no nucleotide): 9.97e-06 s⁻¹
- ka association rate constant ([4]; + ADP): 6.0 (± 0.51) 1/ Ms
- ka association rate constant ([4]; no nucleotide): 3.15 (± 0.31) 1/ Ms
- koff ([4]; + ADP): 1e-05 s⁻¹
- koff ([4]; + ATP): 0.000161 s⁻¹
- koff ([4]; no nucleotide): 8.67e-06 s⁻¹

Molecule: NRNNTG [NRNNTG]
- Kd ([3]; 2 mM ADP): 4.31 nM
- Kd ([3]; no nucleotide (NN)): 6.91 nM
- ka association rate constant ([3]; + ADP): 2.55 (± 0.23) 1/ Ms
- ka association rate constant ([3]; + ATP): 7.33 (± 0.22) 1/ Ms
- ka association rate constant ([3]; no nucleotide): 2.43 (± 0.45) 1/ Ms
- koff ([3]; + ADP): 1.03e-07 s⁻¹
- koff ([3]; + ATP): 1.01e-06 s⁻¹
- koff ([3]; no nucleotide): 9.49e-07 s⁻¹
- Kd ([4]; 2 mM ADP): 1.69 nM
- Kd ([4]; no nucleotide (NN)): 7.92 nM
- ka association rate constant ([4]; + ADP): 5.96 (±0.1) 1/ Ms
- ka association rate constant ([4]; + ATP): 9.37 (±0.17) 1/ Ms
- ka association rate constant ([4]; no nucleotide): 3.52 (± 0.18) 1/ Ms
- koff ([4]; + ADP): 1.01e-08 s⁻¹
- koff ([4]; + ATP): 1.01e-05 s⁻¹
- koff ([4]; no nucleotide): 2.79e-08 s⁻¹

Molecule: hHop: recombinant N-terminally His-tagged human Hsp70‐Hsp90 organizing protein
- association with hHop in slot blot ([5]; hHop immobilized 2, 4, 8 μg, overlaid with PfHsp70‐x 10 μg/mL, no nucleotide): occur in a concentration‐dependent manner
- association with hHop in slot blot ([5]; overlaid with PfHsp70‐x, 5 mM ADP): appeared to enhance the association
- association with hHop in slot blot ([5]; overlaid with PfHsp70‐x, 5 mM ATP): abrogated the interaction
- association with hHop in slot blot [6]: not observed
- inhibition of the PfHsp70‐x-hHop association by ATP [7]: at least tenfold
- association with hHop in ELISA ([8]; PfHsp70‐x immobilized 5 μg/mL, 2 h, 25°C, no nucleotide): occurs in a concentration dependent form
- association with hHop in ELISA ([8]; PfHsp70‐x immobilized, 5 mM ADP): occurs in a concentration dependent form
- association with hHop in ELISA ([8]; PfHsp70‐x immobilized, 5 mM ATP): inhibited the association
